Drawing on article PMC6248884 (European journal of medicinal chemistry, 2018), this text covers IC50 for one compound.

Holding throughout (experiment): Cell proliferation assay
Holding throughout (type): cell-based

For experiment [1], the system named is MDA-MB-231 cells (Her2-). Particulars: read-out: MDA-MB-231 IC50, Table 5.
Experiment [2] concerns MDA-MB-468 cells (Her2-). The note with it: read-out: MDA-MB-468 IC50; Table 5; Her2- cell.
Experiment [3] relates to SKBR3 cells (Her2+). The note with it: read-out: SKBR3 IC50; Table 5; Her2+ cell.

Square brackets hold non-standard residues; d marks the D form. Peptide text beside a SMILES is read from it. * marks the point of attachment. Dolaproine = CO[C@@H]([C@@H]1CCCN1)[C@@H](C)C(=O)O; Dil = CC[C@H](C)[C@H](NC)[C@@H](CC(=O)O)OC; X1 = C[C@@H](N*)[C@@H](O)c1ccccc1; NMeV = CN[C@H](C(=O)O)C(C)C

In the case of `CC[C@H](C)[C@@H]([C@@H](CC(=O)N1CCC[C@H]1[C@H](OC)[C@@H](C)C(=O)N[C@H](C)[C@@H](O)c1ccccc1)OC)N(C)C(=O)[C@@H](NC(=O)[C@@H](NC)C(C)C)C(C)C` [MMAE, monomethyl auristatin E, reference compound] (H-[NMeV]V[Dil][Dolaproine]-X1), the half-inhibitory concentration (IC50) in experiment [1] was 0.005 nM; in experiment [2] it was 0.17 nM; in experiment [3] it was 0.072 nM.
